Results on 13 compounds are retold here after patent US11512083B2, “Compounds and methods for the enhanced degradation of targeted proteins” (Arvinas Operations, Inc., priority 2015, dated 2022).

One assay concerns Androgen Receptor. Description: Androgen receptor ELISA assay (AR degradation) in LNCaP and/or VCaP cells. The assay is classed as cell-based. As to conditions: AR PROTACs; 24 h incubation. The procedure:
Compounds have been evaluated in this assay in LNCaP and/or VCaP cells utilizing similar protocols. The protocols used with VCaP cells are described below. The androgen receptor ELISA assay was performed using PathScan AR ELISA (Cell Signaling Catalog #128501 according to the following assay steps:
VCaP cells are seeded at 30,000 cells/well at a volume of 200 μL/well in VCaP assay medium [Phenol red free RPMI (Gibco Cat #11835-030); 5% Charcoal Stripped (Dextran treated) FBS (Omega Scientific, Cat #FB-04); Pen/Strep Life Technologies (Gibco Cat #: 10378-016); 0. 1 nM R1881 (Sigma, Cat #R0908) is added upon the start of the assay, not during initial plating of the cells) in Corning 3904 plates. The cells are grown for a minimum of 3 days.
(2)(i) Make 10× stock plate in media; (ii) transfer 2.5 μL of the 1000× stock to a new 10× stock plate (use 12 channel pipet, start at A (DMSO control) work thru H. When 247.5 μL of media is added to this plate, it will serve as a 10× stock; (iii) make media+1 nM R1881 for making 10× stock plate; (iv) add 247.5 μL of media with 1 nM R1881 to each well of the 10× stock plate, mix.
Then 22 μL of 10× stock is added to cells and incubated for 24 h. 1× Cell Signaling Cell lysis buffer is made (Catalogue #9803; comes with the kit)—prepare for 50 μL/well. Keep on ice. Media is aspirated, and 50 μL 1× cell lysis buffer/well is added. The cells are placed on ice for 10 minutes. The solution is mixed and transferred to PCR plate, and centrifuged at 4 C for 10 minutes at 4000 rpm. […]
Add 100 μL/well AR Elisa; cover and shake, 37 C for 2 hrs; dump, tap, wash 4× 200 μL ELISA wash buffer; add 100 μL/well mouse AR detection Ab; cover and shake, 37 C for 1 hr; dump, tap, wash 4× 200 μL ELISA wash buffer; add 100 μL/well anti-mouse—HRP conjugated Ab (comes with the kit); cover and shake, 37 C for 30 min; allow TMB reagent to come to RT; dump, tap, wash 4× 200 μL Elisa wash buffer; tap; add 100 μL TMB, shake 5 min—while watching color. […] Add 100 μL Stop solution; shake and read at 450 nm. […]
A general note: In an ELISA, binding on a coated surface is turned into a signal by an enzyme label.

The target of a further assay is BRD4 (Homo sapiens (Human), UniProt O60885). Description: BRD4 c-myc ELISA assay in 22RV-1 cells. As to conditions: 18 hrs, 300 nM-0.3 nM. It counts as cell-based. The procedure:
22RV-1 cells were seeded at 30,000 cells/well at a volume of 75 μL/well in RPMI+10% FBS media in 96-well plates and grown overnight at 37 C. Cells were dosed with compounds at 4× concentration diluted in 0.4% DMSO; compounds were serially diluted 1:3 for 8-point dose curve. 25 ul of compound was added to cells for a final concentration starting at 300 nM-0.3 nM in 0.1% DMSO and incubated for 18 hrs. Media was aspirated, cells washed 1× with PBS and aspirated. Cells were lysed in 50 ul RIPA buffer (50 mM Tris pH8, 150 mM NaCl, 1% Tx-100, 0.1% SDS, 0.5% sodium deoxycholate) supplemented with protease and phosphatase inhibitors. Plates were incubated on ice for 15 minutes then centrifuged at 4° C. for 10 min at 4000 rpm. Added 50 ul of cleared lysate from 96-well assay plate into 96-well c-myc ELISA plate (Novex, Life Technologies Catalog #KH02041). […] The rest of the assay was performed following the protocol from the c-myc ELISA kit. Data was analyzed and plotted using GraphPad Prism software.

The target in another assay is VHL (Homo sapiens (Human), UniProt P40337). Description: VHL fluorescence polarization (FP) competition assay. The assay is classed as binding. Background: Polarisation of emitted light reports the rotation of a fluorescent probe.

By IC50 is commonly meant the midpoint of a concentration-inhibition curve.

As for `Cc1ncsc1-c1ccc([C@H](C)NC(=O)[C@@H]2C[C@@H](O)CN2C(=O)[C@H](C(C)C)n2cc(OCCCOCCC(O)CCOc3ccc(N4C(=S)N(c5ccc(C#N)c(C(F)(F)F)c5)C(=O)C4(C)C)cc3)cn2)cc1` (stereo partly shown), in the assay on Androgen Receptor, the “Dmax (highest percentage of Androgen Receptor degradation observed)” value was “+++ (51%≤Dmax≤70%)”. Still for that read-out and setting: with `Cc1ncsc1-c1ccc(CNC(=O)[C@@H]2C[C@@H](O)CN2C(=O)C(C(C)C)n2cc(OC3CCN(c4ccc(-c5ccc(N6C(=S)N(c7ccc(C#N)c(C(F)(F)F)c7)C(=O)C6(C)C)cc5)cn4)CC3)cn2)cc1` (stereo partly shown) the entry was “++ (26%≤Dmax≤50%)”; with `Cc1ncsc1-c1ccc([C@H](C)NC(=O)[C@@H]2C[C@@H](O)CN2C(=O)[C@H](C(C)C)n2cc(-c3ccnc(N4CC[C@@H](Nc5ccc(C(=O)N[C@H]6C(C)(C)[C@H](Oc7ccc(C#N)c(Cl)c7)C6(C)C)cc5)C4)c3)cn2)cc1`, “++ (26%≤Dmax≤50%)”. With `Cc1ncsc1-c1ccc([C@H](C)NC(=O)[C@@H]2C[C@@H](O)CN2C(=O)[C@H](C(C)C)n2cc(-c3ccnc(O[C@H]4C[C@H](NC(=O)C[C@@H]5N=C(c6ccc(Cl)cc6)c6c(sc(C)c6C)-n6c(C)nnc65)C4)c3)cn2)cc1`, the “cMyc Imax” value on BRD4 was “++++ (71%≤Imax)”. Regarding `Cc1ncsc1-c1ccc([C@H](C)NC(=O)[C@@H]2C[C@@H](O)CN2C(=O)[C@H](C(C)C)n2cc(-c3ccnc(N4CC[C@H](NC(=O)C[C@@H]5N=C(c6ccc(Cl)cc6)c6c(sc(C)c6C)-n6c(C)nnc65)C4)c3)cn2)cc1`, the “cMyc Imax” value at BRD4 is given as “++++ (71%≤Imax)”. As to `Cc1ncsc1-c1ccc([C@H](C)NC(=O)[C@@H]2C[C@@H](O)CN2C(=O)[C@@H](n2cc(-c3ccnc(O[C@H]4C[C@@H](NC(=O)C[C@@H]5N=C(c6ccc(Cl)cc6)c6c(sc(C)c6C)-n6c(C)nnc65)C4)c3)cn2)C(C)(C)C)cc1`, the “cMyc Imax” value at BRD4 was “++++ (71%≤Imax)”. On the same count and under the same terms, with `Cc1ncsc1-c1ccc(CNC(=O)[C@@H]2C[C@@H](O)CN2C(=O)[C@H](C(C)C)n2cc(-c3cccc(O[C@H](C)CNC(=O)C[C@@H]4N=C(c5ccc(Cl)cc5)c5c(sc(C)c5C)-n5c(C)nnc54)c3)cn2)cc1` the entry was “++++ (71%≤Imax)”. In the case of `Cc1ncsc1-c1ccc(CNC(=O)C2(C)C[C@@H](O)CN2C(=O)[C@H](C(C)C)N2Cc3ccccc3C2=O)cc1` (single isomer, unassigned) [Example 128], on VHL (1% in DMSO), the half-inhibitory concentration (IC50) was more than 100 µM. Still for that read-out and setting: with `Cc1ncsc1-c1ccc(CNC(=O)C2(C)C[C@@H](O)CN2C(=O)[C@H](C(C)C)N2Cc3ccccc3C2=O)cc1` (single isomer, unassigned) [Example 129] the figure was 19.3 µM. Regarding `CSC[C@H](NC(=O)CCC(C)C)C(=O)N1C[C@H](O)C[C@H]1C(=O)NCc1ccc(-c2scnc2C)cc1` [Example 22, (2S,4R)-4-hydroxy-1-((R)-2-(4-methylpentanamido)-3-(methylthio)propanoyl)-N-(4-(4-methylthiazol-5-yl)benzyl)pyrrolidine-2-carboxamide], the IC50 at VHL (1% in DMSO) is 6.25 µM; on VHL (10% in DMSO), 8.29 µM. On the same counts, the results for `Cc1ncsc1-c1ccc(CNC(=O)[C@@H]2C[C@@H](O)CN2C(=O)[C@@H](NC(=O)c2ccccc2C#N)C(C)(C)C)cc1` [Example 70, (2S,4R)-1-((S)-2-(2-cyanobenzamido)-3,3-dimethylbutanoyl)-4-hydroxy-N-(4-(4-methylthiazol-5-yl)benzyl)pyrrolidine-2-carboxamide] are 2.02 µM and 1.2 µM. On the same counts, the results for `Cc1ncsc1-c1ccc(CNC(=O)[C@@H]2C[C@@H](O)CN2C(=O)[C@@H](NC(=O)C2CCN(C)CC2)C(C)(C)C)cc1` [Example 75, N—((S)-1-((2S,4R)-4-hydroxy-2-(4-(4-methylthiazol-5-yl)benzylcarbamoyl)pyrrolidin-1-yl)-3,3-dimethyl-1-oxobutan-2-yl)-1-methylpiperidine-4-carboxamide] are 13.7 µM and 9.29 µM. For the compound `Cc1ncsc1-c1ccc(CNC(=S)[C@@H]2C[C@@H](O)CN2C(=O)[C@H](C(C)C)N2Cc3ccccc3C2=O)cc1` [Example 110, (2S,4R)-4-hydroxy-1-((S)-3-methyl-2-(1-oxoisoindolin-2-yl)butanoyl)-N-(4-(4-methylthiazol-5-yl)benzyl)pyrrolidine-2-carbothioamide], on VHL (1% in DMSO), the IC50 was determined as 21.6 µM.
